Results on two compounds are retold here after US5328913A, “Minoxidil analogs as inhibitors of cell proliferation and lysyl hydroxylase” (priority 1992, dated 1994).

One series has as its system human skin fibroblasts. The experiment in a line: Fibroblast proliferation. The series is classed as cell-based. The note with it: relative to minoxidil. How it is done: Cultures were seeded at a density of 100,000 cells per 35 mm-dish and allowed to attach and proliferate in the presence of 20% calf serum. Drug-treated cultures received 1 mM minoxidil or its hydroxy derivative on day 1 after seeding.

For series [1] the following is noted: in vivo; cited from earlier work.
Another series has as its system lysyl hydroxylase. The experiment in a line: Lysyl hydroxylase activity in fibroblasts treated with minoxidil and its hydroxy derivatives (Example 3). The settings on record: for Fibroblast Lysyl Hydroxylase Activity: 48 hr. Type of series: cell-based, human. As to the method:
Culture of human skin fibroblasts derived from an apparently normal adult were grown to confluent densities in Dulbecco's modified Eagle's medium supplemented with 10% (v/v) fetal calf serum. Thereafter, the medium was replaced with medium supplemented with 0.5% dialyzed fetal calf serum. […] In some experiments, minoxodil was dissolved in 95% (v/v) ethanol; the final concentration of minoxidil was 0.3 mM and that of ethanol was 0.3%. Cultures treated with ethanol only served as the control.
(§1) During the last 3 hr of treatment, cultures received 100 μM ascorbic acid. The enzyme activities in extracts of treated cells were measured by tritium-release assays described previously (Murad and Pinnell, J. Biol. Chem. 262:11,973 (1987)).

The test system of series [2] is Collagen Synthesis in Human Skin Fibroblasts. Description: Collagen synthesis in human skin fibroblasts. Type of series: cell-based. The settings on record: 1 mM, 72 hr; mean ± SD of duplicate analysis of two cultures (Table VII). How it is done:
(§2) Culture of human skin fibroblasts derived from an apparently normal adult were grown to confluent densities in Dulbecco's modified Eagle's medium supplemented with 10% (v/v) fetal calf serum. Thereafter, the medium was replaced with medium supplemented with 0.5% dialyzed fetal calf serum. The cultures were treated for 72 hr with 1 mM minoxidil, 3'- hydroxyminoxidil,or 4'-hydroxyminoxidil (Upjohn) dissolved in aqueous medium. In some experiments, minoxodil was dissolved in 95% (v/v) ethanol; […]. Cultures treated with ethanol only served as the control.
During the last 6 hr of treatment, cultures were labeled with 20 μCi of L-[2,3-^3 H]proline in 1 ml of medium supplemented with 100 μM ascorbic acid. The amount of proline radioactivity incorporated into collagen in the medium and cells combined was measured after digestion with a bacterial collagenase, essentially as described previously (Freiberger et al, J. Invest. Dermatol. 75:425 (1980)).

Series [3] relates to non-proliferating fibroblasts. Description: Cytotoxicity to non-proliferating fibroblasts (cell number per dish). The settings on record: 5 mM, 72 hr. Type of series: cell-based. The text has this:
Certain aspects of the present invention are described in greater detail in the non-limiting Examples that follow. (See also Murad et al, Arch. Biochem. Biophys. 292:234 (1992)).

Series [4] concerns Prolyl Hydroxylations in Human Skin Fibroblasts. Description: Hydroxylation of proline residues in type I procollagen (Hyp/Pro). The settings on record: 1 mM; for Hyp/Pro: 72 hr; for activity at 1000 µM: Homo sapiens, Skin fibroblast, 72 hr (Table V), read-out: ratio of hydroxyproline to proline, % control value. The series is classed as cell-based. As to the method:
Culture of human skin fibroblasts derived from an apparently normal adult were grown to confluent densities in Dulbecco's modified Eagle's medium supplemented with 10% (v/v) fetal calf serum. Thereafter, the medium was replaced with medium supplemented with 0.5% dialyzed fetal calf serum. […] In some experiments, minoxodil was dissolved in 95% (v/v) ethanol; […]. Cultures treated with ethanol only served as the control.
(§3) During the last 6 hr of treatment, cultures were labeled with 50 μCi of L-[2,3-^3 H]proline (35 Ci/mmol) and 50 μCi of L[U-^14 C]lysine ([…]) in 4 ml of lysine-free medium supplemented with 100 μM ascorbic acid. At the end of the incubation period, the medium was removed and mixed with 1 mM each of EDTA, N-ethylmaleimide, and phenylmethylsulfonylfluoride, and the collagenous proteins were precipitated with 30% (NH4)2 SO4. The cell layer was scraped and extracted with 0.5 M acetic acid containing the protease inhibitors as above. The cell extract was neutralized, and the collagenous proteins were precipitated as above. The (NH4)2 SO4 precipitate from the medium and cell layer was separately dissolved in 0.1% SDS/10 mM Tris-HCl (pH 6.8), reduced with dithiothreitol, and analyzed by electrophoresis on 4% SDS-polyacrylamide gels. The bands corresponding to the proαl(I) and proα2(I) chains from the two fractions were pooled and hydrolyzed with 6 M HCl for 24 hr at 110° C. Proline, hydroxyproline, lysine, and hydroxylysine in the hydrolysate were separated by HPLC (Takimitsa et al, J. Dermatol. 16:37 (1989)), and their radioactivity was determined in a Beckman liquid scintillation counter. To isolate type I procollagen the precipitate from the medium and cell layer was separately dissolved in 25 mM Tris-HCl, pH 7.5, containing 2 M urea and 1 mM each of EDTA, N-ethylmaleimide, and phenylmethylsulfonylfluoride, then chromatographed on a DEAE-cellulose column (Freiberger et al, J. Invest. Dermatol. 75:425 (1980)). The procollagen isolated from the two fractions was pooled, hydrolyzed, and analyzed as above.

The test system of the next series is prolyl hydroxylase. Description: Prolyl hydroxylase activity in fibroblasts treated with minoxidil and its hydroxy derivatives (Example 3). The note with it: for prolyl hydroxylase activity (in words) / Prolyl Hydroxylase Activity: 1 mM; for prolyl hydroxylase activity (in words): 72 hr. Type of series: cell-based, human. How it is done: Culture of human skin fibroblasts derived from an apparently normal adult were grown to confluent densities in Dulbecco's modified Eagle's medium supplemented with 10% (v/v) fetal calf serum. Thereafter, the medium was replaced with medium supplemented with 0.5% dialyzed fetal calf serum. The cultures were treated for 72 hr with 1 mM minoxidil, 3'- hydroxyminoxidil,or 4'-hydroxyminoxidil (Upjohn) dissolved in aqueous medium. In some experiments, minoxodil was dissolved in 95% (v/v) ethanol; the final concentration of minoxidil was 0.3 mM and that of ethanol was 0.3%. Cultures treated with ethanol only served as the control.
as §1

Series [5] deals with Lysyl Hydroxylations in Human Skin Fibroblasts. The experiment in a line: Hydroxylation of lysine residues in type I procollagen (Hyl/Lys). The series is classed as cell-based. The note with it: 1 mM; for Hyl/Lys: 72 hr; for activity at 1000 µM: Homo sapiens, Skin fibroblast, 72 hr (Table V), read-out: ratio of hydroxylysine to lysine, percentage of control value. How it is done:
as §2, §3

Setting [6] is: 1 mM, 72 hr (description table).
Where [7] appears, read: type I procollagen chains isolated by gel electrophoresis, mean ± range of two experiments (description table).

“Also recorded” adds a separate entry of the source.

As to `Nc1cc(N2CCC(O)CC2)nc(N)[n+]1[O-]` [4'-Hydroxyminoxidil], in the series on human skin fibroblasts, the “suppression of fibroblast proliferation (in words)” value is reported as “as active as minoxidil in suppressing fibroblast proliferation”. Also, the “antihypertensive / hypotensive activity (in words)” value in series [1] was “Neither metabolite exhibits the marked hypotensive activity associated with minoxidil; also recorded: inactive as antihypertensive agents”. In the series with lysyl hydroxylase, the “suppression of lysyl hydroxylase (in words)” value was “inhibitory potential comparable to that of minoxidil; also recorded: as active as minoxidil in suppressing fibroblast proliferation and lysyl hydroxylase activity”. For the same compound, the “Fibroblast Lysyl Hydroxylase Activity” value was determined as 415 cpm^3 H2 O/mg protein in the series on lysyl hydroxylase (1 mM) and 494 cpm^3 H2 O/mg protein in the series with lysyl hydroxylase (5 mM). For the same compound, the “Lysyl Hydroxylase Activity” value came out at 239 cpm ^3 H2 O/mg protein in the series with lysyl hydroxylase (1 mM, 72 hr (Table VI)) and 293 cpm^3 H2 O/mg protein in the series with lysyl hydroxylase (setting [6]). Also, the “% Collagen Synthesized” value in series [2] is on record as 8.2 ± 0.6%. Besides, the “10^-6 × No. of Cells/Dish” value in series [3] is 1.42 10^-6 × No. of Cells/Dish. The Hyp/Pro in series [4] (gel electrophoresis (Table V)) and in series [4] (setting [7]) was 1.12 ± 0.07 each time. The activity at 1000 µM in series [4] was found to be 122%; in series [5], 41%. Moreover, the “effect on prolyl hydroxylase (in words)” value in the series on prolyl hydroxylase was “without affecting prolyl hydroxylase”. Besides, in the series with prolyl hydroxylase, the “prolyl hydroxylase activity (in words)” value is reported as “remained unchanged”. Also, the entries for the “Prolyl Hydroxylase Activity” value with prolyl hydroxylase (72 hr (Table VI)) and with prolyl hydroxylase (72 hr (description table)) were 33500 cpm ^3 H2 O/mg protein and 33500 cpm^3 H2 O/mg protein, respectively. Also, the Hyl/Lys in series [5] (gel electrophoresis (Table V)) and in series [5] (setting [7]) was 0.09 ± 0.01 throughout.
As to `Nc1cc(N2CCCC(O)C2)nc(N)[n+]1[O-]` (stereo not drawn) [3'-Hydroxyminoxidil], in the series on human skin fibroblasts, the “suppression of fibroblast proliferation (in words)” value was “as active as minoxidil in suppressing fibroblast proliferation”. Moreover, in series [1], the “antihypertensive / hypotensive activity (in words)” value is “Neither metabolite exhibits the marked hypotensive activity associated with minoxidil; also recorded: inactive as antihypertensive agents”. Moreover, the “suppression of lysyl hydroxylase (in words)” value with lysyl hydroxylase is “inhibitory potential comparable to that of minoxidil; also recorded: as active as minoxidil in suppressing fibroblast proliferation and lysyl hydroxylase activity”. Besides, the “Fibroblast Lysyl Hydroxylase Activity” value is reported as 401 cpm^3 H2 O/mg protein in the series with lysyl hydroxylase (1 mM) and 383 cpm^3 H2 O/mg protein with lysyl hydroxylase (5 mM). For the same compound, the “Lysyl hydroxylase activity, % of control level” value in the series with lysyl hydroxylase (1 mM, 72 hr) came out at 22%. Moreover, the “Lysyl Hydroxylase Activity” value was 263 cpm ^3 H2 O/mg protein in the series on lysyl hydroxylase (1 mM, 72 hr (Table VI)) and 263 cpm^3 H2 O/mg protein in the series on lysyl hydroxylase (setting [6]). Besides, the “% Collagen Synthesized” value in series [2] is recorded as 9.0 ± 0.9%. In series [3], the “10^-6 × No. of Cells/Dish” value is recorded as 1.39 10^-6 × No. of Cells/Dish. The Hyp/Pro in series [4] (gel electrophoresis (Table V)) and in series [4] (setting [7]) was 0.95 ± 0.02 in each case. The results for the activity at 1000 µM in series [4] and in series [5] were 103% and 32%, respectively. The “effect on prolyl hydroxylase (in words)” value in the series on prolyl hydroxylase is recorded as “without affecting prolyl hydroxylase”. Moreover, the “prolyl hydroxylase activity (in words)” value in the series with prolyl hydroxylase is recorded as “remained unchanged”. The “Prolyl Hydroxylase Activity” value is given as 30512 cpm ^3 H2 O/mg protein in the series with prolyl hydroxylase (72 hr (Table VI)) and 30512 cpm^3 H2 O/mg protein in the series on prolyl hydroxylase (72 hr (description table)). Besides, the Hyl/Lys in series [5] (gel electrophoresis (Table V)) and in series [5] (setting [7]) was 0.07 ± 0.01 throughout.
